Patent US20140378529A1, “COLLATERAL GENE INACTIVATION BIOMARKERS AND TARGETS FOR CANCER THERAPY” (Board Regents, The University of Texas System, priority 2011, published 2014)
Read-outs that look alike come from different tables or passages of the source.

Tests used:
[1] = Table 5, cited from earlier work
[2] = biological target: enolase; conditions: cited from earlier work
[3] = tested on: ENO1-null cells (D423-MG, Gli56); test: Cell growth / toxicity in ENO1-null GBM cells; assay type: cell-based, human; conditions: for growth of ENO1-null cells: doxycycline-inducible TRIPZ, D423-MG
Description: (§1) For crystal violet assays, 10,000 cells were seeded in a 6-well plate for each time point. At the indicated time point, cells were fixed with 10% formalin and stained with crystal violet solution for 1 hour. Dye extraction was performed using 10% acetic acid solution and absorbance was read at 590 nm. Cell titer Glo® experiments were performed as indicated by the manufacturer. 1000 cells/well were plated in a 96 well plate for each time point and luminescence readings were taken every 24 hours. All experiments were performed in triplicate.
(§2) Structure and purity were verified by NMR. […] Given the instability of the compound, media was replaced every 5 days and fresh inhibitor added with fresh media.
(§3) Cell growth of shRNA- or PhAH-treated cell lines was assayed either through crystal violet staining or using the Promega CellTiter-Glo proliferation kit (Roche) or alternatively, in vivo, by measuring confluence with the IncuCyte (Essen BioScience). Growth curves using the IncuCyte were generated by imaging every 2 hours with quadruplicate replicates. For crystal violet assays, 10^4 cells were seeded in a 6-well plate for each time point. At the indicated time point, cells were fixed with 10% formalin and stained with crystal violet solution for 1 h. Dye extraction was performed using 10% acetic acid solution, and absorbance was read at 590 nm. CellTiter-Glo experiments were performed according to the manufacturer's instructions; 10^3 cells/well were plated in a 96-well plate for each time point, and luminescence readings were taken every 24 h. All experiments were performed in triplicate. Soft agar (anchorage-independent) growth was monitored in 6-well plates seeded with 10^4 cells of the indicated genotype. The medium contained DMEM with 10% FBS; the top agar contained 0.4% low melting agarose, while the bottom agar contained 1% low melting agarose. Growth was monitored by fluorescence (GFP) and after 28 days colonies were stained with iodonitrotetrazolium chloride (Sigma-Aldrich) and counted.
Structure and purity were verified by NMR. […]

[4] = tested on: enolase 2 protein; test: shRNA knockdown of ENO2 expression (western blot); assay type: cell-based, human; conditions: pGIPZ vector; D423-MG and D502-MG; vs shNT
Text: Two of these hairpins were in the pLKO.1 vector (ShENO2-1 and shENO2-2) and the remaining two were in the Expression Arrest GIPZ (shENO2-3) and TRIPZ (shENO2-4) shRNAmir vectors (Open Biosystems, Huntsville, Ala.). The hairpin in the GIPZ vector was cloned into the TRIPZ vector using a protocol provided by the manufacturer. The TRIPZ vector is a doxycycline inducible system with a Red fluorescent protein reporter which is only expressed upon doxycycline induction. Recombinant lentivirus was produced by transient transfection of 293T cells following a standard protocol. Briefly, 72 μg of the shRNA plasmid, 54 μg of Delta 8.9 and 18 μg of VSVG plasmids were transfected using Fugene® (Roche, Indianapolis, Ind.) into 293T cells plated in 245 mm2 dishes. Viral supernatant was collected 72 hours after transfection, concentrated by centrifugation at 23,000 rpm and resuspended in cell growth medium. For transduction, viral solutions were added to cell culture medium containing 4 μg/mL polybrene; 48 hours after infection cells were selected using 2 μg/mL puromycin and tested for ENO2 knockdown by western blot.
The hairpin in the GIPZ vector was cloned into the TRIPZ vector using a protocol provided by the manufacturer. The TRIPZ vector is a doxycycline-inducible system with a red fluorescent protein reporter that is expressed only upon doxycycline induction. […]

[5] = tested on: D423-MG cells; test: Orthotopic brain tumor formation; assay type: in vivo, SCID mice; conditions: D423-MG injected intracranially; vs shNT
Description: Injection of D423-MG cells was performed as previously described (in Zheng et al., 2008) SCID mice (Charles River) aged 6-12 weeks were placed into stereotactic apparatus equipped with a Z axis (Stoelting). A hole was bored in the skull 0.5 mm anterior and 3.0 mm lateral to the bregma using a dental drill. One hundread thousand cells in Hanks Buffered Salt Solution were injected into the right caudate nucleus 3 mm below the surface of the brain using a 10-μl Hamilton syringe with an unbeveled 30 gauge needle. The scalp was closed using a 9-mm Autoclip Applier. Animals were followed daily for the development of neurological deficits.
The in vivo tumorigenic potential of D423-MG cells transduced with non-targeting hairpin or shENO2-3 delivered through pGIPZ was determined as previously described (Zheng et al., 2008). SCID mice (Charles River) under deep anesthesia were placed into a stereotactic apparatus equipped with a z axis (Stoelting). Then, 3×10^5 cells were injected intracranially into the right caudate nucleus 3 mm below the surface of the brain, using a 10-μl Hamilton syringe. The animals were followed daily for development of neurological deficits. All mice experiments were performed with the approval of the Harvard Cancer Center and Dana-Farber Cancer Institute Institutional Animal Care and Use Committee.

[6] = tested on: D423-MG ENO1-null cells; test: Soft agar colony formation assay; assay type: cell-based, human; conditions: vs shNT
Description: Anchorage-independent growth assays were performed in duplicate or triplicate in 6 well plates. 10^4 of indicated cells per well were seeded in DMEM+10% FBS containing 0.4% low-melting agarose on the top of bottom agar containing 1% low-melting agarose DMEM+10% FBS. After 14-21 days, colonies were stained with iodonitrotetrazoliumchloride (Sigma-Aldrich) and counted.
as §3, with “At the indicated time point, cells were fixed with 10% formalin and stained with crystal violet solution for 1 h.” left out, “All experiments were performed in triplicate.” left out, “The medium contained DMEM with 10% FBS; the top agar contained 0.4% low melting agarose, while the bottom agar contained 1% low melting agarose.” left out

[7] = tested on: 451 Lu cells; test: Borrelidin growth, 451 Lu (TARS deficient); assay type: cell-based, human
Text: (§4) The effect of various concentrations of Borrelidin on the growth of the four melanoma cells lines over time was also studied (FIG. 21).

[8] = tested on: SK-MEL-5 cells; test: Borrelidin growth, SK-MEL-5 (TARS WT); assay type: cell-based, human
Text: as §4

[9] = tested on: SK-MEL-2 cells; conditions: NCI-60 database; cited from earlier work
[10] = tested on: SK-MEL-2 cells; test: Borrelidin growth and cytotoxicity, SK-MEL-2 (TARS Het); assay type: cell-based, human
Description: as §4
To this end, the inventors ran the same live growth assay, except starting with a high confluence of SK-MEL-2 cells at time zero. Under these conditions it became apparent that concentrations of Borrelidin at or above 15 nM are cytotoxic to SK-MEL-2 cells, while lower concentrations are growth inhibitory (FIG. 22).

[11] = tested on: HMEL cells; test: Borrelidin growth, HMEL (TARS WT); assay type: cell-based, human
Text: as §4

[12] = tested on: ENO1-null D423-MG cells; test: Relative growth with receptor tyrosine kinase inhibitors or rapamycin; assay type: cell-based, human; conditions: combination of sorafenib, lapatinib and PHA665752
Description: Given the instability of the compound, the medium was replaced every 5 days and fresh inhibitor added with fresh medium.

[13] = tested on: ENO1 WT GBM cells and normal astrocytes; test: Cell growth / toxicity in ENO1 WT GBM cells and normal astrocytes; assay type: cell-based, human
Description: as §1, §2
(§5) Cell growth of shRNA- or PhAH-treated cell lines was assayed either through crystal violet staining or using the Promega CellTiter-Glo proliferation kit (Roche) or alternatively, in vivo, by measuring confluence with the IncuCyte (Essen BioScience). […] Dye extraction was performed using 10% acetic acid solution, and absorbance was read at 590 nm. CellTiter-Glo experiments were performed according to the manufacturer's instructions; 10^3 cells/well were plated in a 96-well plate for each time point, and luminescence readings were taken every 24 h. […] Soft agar (anchorage-independent) growth was monitored in 6-well plates seeded with 10^4 cells of the indicated genotype. […]

[14] = tested on: ENO1 heterozygous cells (D502-MG and U343); test: Cell growth / toxicity in ENO1 heterozygous GBM cells; assay type: cell-based, human
Description: as §1, §2, §5

[15] = biological target: yeast enolase (Saccharomyces cerevisiae, UniProt P00924); conditions: read-out: inhibitory constant on yeast enolase; Anderson et al., 1984; cited from earlier work
yeast enolase, sequence (P00924 whole entry): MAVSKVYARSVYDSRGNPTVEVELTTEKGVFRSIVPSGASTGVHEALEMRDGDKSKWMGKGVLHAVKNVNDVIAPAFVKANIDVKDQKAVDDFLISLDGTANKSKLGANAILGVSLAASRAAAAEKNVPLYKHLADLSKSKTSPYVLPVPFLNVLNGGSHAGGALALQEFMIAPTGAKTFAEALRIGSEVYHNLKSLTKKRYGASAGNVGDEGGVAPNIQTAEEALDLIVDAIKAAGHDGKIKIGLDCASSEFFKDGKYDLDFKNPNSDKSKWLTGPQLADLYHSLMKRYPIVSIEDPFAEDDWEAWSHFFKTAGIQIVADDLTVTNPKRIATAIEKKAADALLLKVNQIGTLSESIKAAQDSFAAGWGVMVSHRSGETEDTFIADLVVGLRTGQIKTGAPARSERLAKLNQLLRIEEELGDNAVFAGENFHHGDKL

[16] = Table 5, published enolase inhibitors
[17] = Table 4, known enolase inhibitors
[18] = printed: SK-MEL-2 cell line, which is also wild-type for TARS

In the case of 2-fluoro-2-phosphonoacetohydroxamate, the pKa [1] is listed as 8.1 and the Ki [2, 16] is listed as 1400 nM.
In the case of “5′-CGGCCTTCAACGTGATCAA-3′ (expressed or natural sequence) [shENO2-3]”, the “growth of ENO1-null cells” value [3] is reported as “dramatically inhibited growth”, the cell proliferation ([3]; pGIPZ, only in the context of ENO1 genomic deletion (D423-MG)) is reported as “dramatically slowed” and the “reduction of expression of ENO2” value [4] is reported as > 70%. The “in vivo tumorigenic properties” value [5] was “dramatically decreased” and the “soft agar colony formation” value [6] was “dramatically decreased”.
With “5′-GGGACTGAGAACAAATCCA-3′ (expressed or natural sequence) [shENO2-4]” the “growth of ENO1-null cells” value [3] was “dramatically inhibited growth”.
For NC=C(OP(=O)(O)O)C(=O)O [3-aminoenolpyruvate-2-phosphate], the Ki [2, 17] is listed as 100 nM and the Ki [2, 16] is listed as 100 nM.
For O=[N+]([O-])C(CO)CP(=O)(O)O (centres unmarked) [(3-hydroxy-2-nitropropyl)phosphonate], the pKa [1] is listed as 8.1, the Ki [2, 17] is listed as 1 nM and the Ki [2, 16] is listed as 6 nM.
In the case of O=[N+]([O-])CCP(=O)(O)O [(nitroethyl)phosphonate], the pKa [1] is listed as 8.5, the Ki [2, 17] is listed as 1000 nM and the Ki [2, 16] is listed as 1000 nM.
With C[C@@H]1C[C@H](C)C[C@H](C)[C@@H](O)CC(=O)O[C@H]([C@@H]2CCC[C@H]2C(=O)O)C/C=C/C=C(/C#N)[C@H](O)[C@@H](C)C1 [Borrelidin] the “concentration that nearly inhibited growth” value [7] was 62.5 nM, the “sensitivity to Borrelidin treatment” value [7] was “intermediate sensitivity” and the “effect on growth at low concentrations” value ([8]; SK-MEL-5) was “minimal to no effect”. The “sensitivity of growth at 62.5 nM” value [8, 18] was “partially sensitive”, the “sensitivity of growth at concentrations less than 31.25 nM” value [8, 18] was “largely resistant” and the “Sensitivity to borrelidin (IC50) in a panel of cancer cell lines” value [9] was “lowest IC50”. The “effect on growth at low concentrations” value ([10]; SK-MEL-2) was “stalled the growth”, the “lowest concentration with at least partial sensitivity” value ([10]; SK-MEL-2) was ≥ 3.9 nM and the cytotoxic concentration ([10]; SK-MEL-2, high confluence at time zero) was ≥ 15 nM. For the same compound, the “concentration that completely inhibited growth” value ([10]; SK-MEL-2, low initial cell density) was 31.25 nM, the “effect on growth at low concentrations” value [11] was “minimal to no effect” and the “sensitivity of growth at the highest tested concentration” value ([11]; 62.5 nM) was “resistant”.
In the case of O=CC(OP(=O)(O)O)C(=O)O [D-tartronate semialdehyde phosphate], the Ki [2, 17] is listed as 10000 nM and the Ki [2, 16] is listed as 10000 nM.
For F [Fluoride], the “Ki (M)” value [2, 17] is listed as “Varied depending” and the “Ki (M)” value [2, 16] is listed as “Varied”.
In the case of Cc1[nH]c(/C=C2\C(=O)Nc3ccc(S(=O)(=O)Cc4c(Cl)cccc4Cl)cc32)c(C)c1C(=O)N1CCC[C@@H]1CN1CCCC1 [PHA665752], the “sensitivity of ENO1-null D423-MG cells versus ENO1 WT GBM cell lines” value [12] is reported as “no more sensitive”.
For O=C(CP(=O)(O)O)NO [PhAH, phosphonoacetohydroxamate], the “concentration above which PhAH has more than minimal effect on growth” value [13] is listed as “higher than 50 μM”, the pKa ([1]; listed as Phosphonoacetohydroxamate) is listed as 10.2 and the “times lower doses for similar growth inhibition compared with normal human astrocytes” value [14] is listed as “about 8 times”. The Ki [15] was 0.015 nM.
With CS(=O)(=O)CCNCc1ccc(-c2ccc3ncnc(Nc4ccc(OCc5cccc(F)c5)c(Cl)c4)c3c2)o1 [lapatinib] the “sensitivity of ENO1-null D423-MG cells versus ENO1 WT GBM cell lines” value [12] was “no more sensitive”.
In the case of CC[C@H]1/C=C/C=C/C[C@@H](C)[C@H](O)[C@@](C)(O)C(=O)[C@@H](C)[C@H](O)[C@@H](C)C(=O)[C@@H](C)[C@H](O)[C@@H](C)/C=C/C(=O)O[C@@H]2[C@H](C)[C@H](CC1)O[C@]1(CC[C@H](C)[C@H](C[C@@H](C)O)O1)[C@H]2C [oligomycin], the “effect of oligomycin on its own” value ([14]; oligomycin 10 nM) is reported as “minimal effects”.
For d-(phosphonoethyl)nitrolate, the Ki [2, 17] is given as 14 nM and the Ki [2, 16] is given as 14 nM.
